Results published in ChEMBL document CHEMBL1146425, “Two new antiprotozoal 5-methylcoumarins from Vernonia brachycalyx” (J Nat Prod, 1997).

How the values were obtained:
Plasmodium falciparum [1] = assay: Antiplasmodial activity against chloroquine-sensitive Plasmodium falciparum 3D7 by [G-3H]hypoxanthine uptake; assay type: functional, organism-based
Leishmania major = assay: Antileishmanial activity against Leishmania major promastigotes assessed as inhibition of [3H]thymidine incorporation after 18 hrs by scintillation counting; assay type: functional, organism-based
Plasmodium falciparum [2] = assay: Antiplasmodial activity against chloroquine-resistant Plasmodium falciparum Dd2 by [G-3H]hypoxanthine uptake; assay type: functional, organism-based
[3] = Inhibition of phytohemagglutininin A-induced human lymphocyte proliferation assessed as radiolabeled thymidine uptake at < 300 uM; assay type: cell-based
[4] = Inhibition of phytohemagglutininin A-induced human lymphocyte proliferation assessed as radiolabeled thymidine uptake; assay type: cell-based

Cc1cccc2oc(=O)c3c(c12)O[C@@H](C)[C@@]3(C)CC(=O)[C@@H]1OC1(C)C
IC50 (Plasmodium falciparum [1]): 160 µM | IC50 (Leishmania major): 37 µM | IC50 (Plasmodium falciparum [2]): 54 µM | Activity [3]: Not Active | IC50 [4]: 313 µM

Cc1cccc2oc(=O)c3c(c12)O[C@H](C)[C@@]3(C)CC(=O)[C@@H]1OC1(C)C [CYCLOISOBRACHYCOUMARINONE EPOXIDE]
IC50 (Plasmodium falciparum [1]): 111 µM | IC50 (Leishmania major): 13.4 µM | IC50 (Plasmodium falciparum [2]): 54 µM | IC50 [4]: 1810 µM
